Some targets named below: HLA-A3.2 (A*0301) (Homo sapiens, UniProt P04439); A31 (A*3101) (Homo sapiens, UniProt P04439, A270S/D185E/E176V/E277Q/F33T/G231S/G80R/H175R/I121M/I218V/I322F/K168Q/L300P/L318F/M331R/P217A/Q94H/R138Q/T323A/T345S/T97I/V358M); A*6801 (Homo sapiens, UniProt P04439, A269V/D185E/E176V/E277Q/E87N/F33Y/G231S/I121M/I166T/I218V/L180W/L300P/L318F/N151K/P208A/P217A/Q86R/R169H/T345S); A*3301 (Homo sapiens, UniProt P04439, A270S/D185E/E176V/E277Q/E87N/F33T/G231S/H175R/I121M/I218V/I322F/K168Q/K210R/L300P/L318F/M331R/P217A/Q86R/Q94H/R138Q/T323A/T345S/T97I/V358M/Y195H).

Common to all, as to test: biochemical
Assay type in all cases: binding

pIC50: −log10 of the molar value. No end group written: not given here.

For the sequence LVKHHMYVSK [Peptide 9017.0216], the pIC50 (usually −log10 of the IC50, conventionally taken in molar units) against HLA-A3.2 (A*0301) is 6.24; against A31 (A*3101), 6.46; on A*6801 it was 7.77.

As to SQRLNVCQDK [Peptide 88.0205], the pIC50 on HLA-A3.2 (A*0301) is 5.73; against A31 (A*3101) it was 4.87; against A*3301, less than 4.70; against A*6801, less than 4.70.

Turning to PVRPQVPLR [Peptide 66.0063], at HLA-A3.2 (A*0301), the negative-log IC50 (pIC50) is less than 4.70.

Regarding KQRFHNIRGR [Peptide 78.0083], the pIC50 is 5.69 against HLA-A3.2 (A*0301), 6.75 against A31 (A*3101) and 5.35 on A*3301.

Regarding VQVYFDGNK [Peptide 88.0399], the negative-log IC50 (pIC50) at HLA-A3.2 (A*0301) is 5.69; against A31 (A*3101), less than 4.70; at A*3301, less than 4.70.

MLIQPPKLR [Peptide 88.0340]: the negative-log IC50 (pIC50) is 4.79 on HLA-A3.2 (A*0301), 6.16 at A31 (A*3101), 6.84 against A*3301 and 7.60 at A*6801.

ATNCTNKQR [Peptide 1589.20]: the pIC50 against HLA-A3.2 (A*0301) is 5.74; on A31 (A*3101), 7.29; against A*3301, 4.89.

As to RAHSSHLR [Peptide 1556.71], the values for the pIC50 against HLA-A3.2 (A*0301), against A31 (A*3101) and on A*6801 were 5.72, 7.40 and 5.76, respectively.

Consider RQQFLKTVK [Peptide 1589.33], for which the negative logarithm of the IC50 (pIC50) against HLA-A3.2 (A*0301) was 5.88; on A31 (A*3101) it was 7.35; against A*6801 it was less than 4.70.

With TTITVYAEPPR [Peptide 1556.07], the negative logarithm of the IC50 (pIC50) against HLA-A3.2 (A*0301) was less than 4.70; against A31 (A*3101), 6.24; against A*3301 it was 5.59; against A*6801 it was 7.70.

As to MVVLLLVRYK [Peptide 1587.04], the pIC50 against HLA-A3.2 (A*0301) is 5.58; against A*3301, 5.35; against A*6801, 6.14.

For the sequence LLCGPANTGK [Peptide 88.0195], the negative logarithm of the IC50 (pIC50) is 6.86 on HLA-A3.2 (A*0301), 5.44 against A31 (A*3101), less than 4.70 against A*3301 and 5.72 on A*6801.

In the case of AFTDLTIVYR [Peptide 78.0052], the pIC50 against HLA-A3.2 (A*0301) is less than 4.70; on A31 (A*3101) it was 6.09; against A*3301 it was 6.09; on A*6801, 6.68.

Regarding LTKMFCQLAK [Peptide 1556.51], the negative-log IC50 (pIC50) against HLA-A3.2 (A*0301) is 6.03; against A31 (A*3101) it was 5.62; against A*3301 it was 4.90; against A*6801, 6.76.

Turning to ILTAFNSSHK [Peptide 1589.03], the figures for the pIC50 on HLA-A3.2 (A*0301), at A*3301 and at A*6801 were 7.92, less than 4.70 and 5.19, respectively.

For the sequence YLALTALIK [Peptide 9017.0097], the negative-log IC50 (pIC50) on HLA-A3.2 (A*0301) was 6.63; against A31 (A*3101), less than 4.70; at A*3301, less than 4.70; on A*6801, 5.23.

With SQISYWQLIR [Peptide 88.0220], the negative logarithm of the IC50 (pIC50) at HLA-A3.2 (A*0301) is 5.58; against A*3301, less than 4.70; against A*6801 it was 6.03.

As for SQACALYWFR [Peptide 88.0192], the figures for the pIC50 against HLA-A3.2 (A*0301), at A31 (A*3101) and at A*6801 were 5.33, 7.38 and 7.07, respectively.

LQGLAQSRYK [Peptide 88.0201]: the pIC50 on HLA-A3.2 (A*0301) was 5.96; on A31 (A*3101), 5.40; at A*3301 it was less than 4.70; against A*6801, less than 4.70.

As to TVSATQIVR [Peptide 1589.26], the pIC50 at HLA-A3.2 (A*0301) is 5.60; against A31 (A*3101) it was 6.67; at A*3301, 6.19; against A*6801, 7.85.

Take TVTVSAELPK [Peptide 1556.16]: the results for the negative logarithm of the IC50 (pIC50) on HLA-A3.2 (A*0301), against A31 (A*3101) and on A*3301 were 5.46, less than 4.70 and less than 4.70, respectively.

On to TIVYIEYRK [Peptide 9017.0118], for which the pIC50 on HLA-A3.2 (A*0301) is 5.05; against A31 (A*3101), 4.86; at A*6801 it was 7.74.

On to KLFLKGVPKK [Peptide 1587.40], for which the pIC50 is 7.80 against HLA-A3.2 (A*0301), 5.98 at A31 (A*3101), less than 4.70 on A*3301 and less than 4.70 at A*6801.

Regarding EVHIPLGDAR [Peptide 9017.0217], the pIC50 on HLA-A3.2 (A*0301) is 5.03; at A31 (A*3101) it was 5.00; at A*6801, 8.02.

In the case of AFADLTVVYR [Peptide 78.0058], the pIC50 against HLA-A3.2 (A*0301) was less than 4.70; on A31 (A*3101), 6.85; at A*3301 it was 6.60; against A*6801, 7.41.

Turning to LTARNVLVK [Peptide 9012.0213], the negative logarithm of the IC50 (pIC50) at HLA-A3.2 (A*0301) was 7.64; on A31 (A*3101), less than 4.70; against A*3301, less than 4.70; against A*6801, 7.28.

In the case of RLCDHIDYWK [Peptide 1589.11], the pIC50 against HLA-A3.2 (A*0301) was 6.34; at A31 (A*3101) it was 5.79; at A*3301 it was less than 4.70; against A*6801 it was 4.77.

With KQLQHTPSPY [Peptide 88.0204], the pIC50 was 6.93 on HLA-A3.2 (A*0301), less than 4.70 on A31 (A*3101), less than 4.70 against A*3301 and less than 4.70 at A*6801.

For SQWIKYRCSK [Peptide 88.0174], the negative-log IC50 (pIC50) on HLA-A3.2 (A*0301) is 6.03; against A31 (A*3101), 6.49; on A*3301, 5.47; against A*6801 it was less than 4.70.

KMFCQLAR [Peptide 1556.53]: the values for the pIC50 at HLA-A3.2 (A*0301), on A31 (A*3101) and against A*6801 were 7.66, 7.46 and 6.60, respectively.

In the case of GVRRATTSTK [Peptide 88.0210], the pIC50 against HLA-A3.2 (A*0301) was 8.21; against A31 (A*3101) it was 5.44; on A*3301, less than 4.70; at A*6801 it was 4.74.

AFKDLFVVYK [Peptide 88.0024]: the pIC50 was 5.49 on HLA-A3.2 (A*0301), 7.49 against A31 (A*3101), 7.03 at A*3301 and 6.24 against A*6801.

Turning to RILSTCLGR [Peptide 9017.0073], the pIC50 was 7.24 against HLA-A3.2 (A*0301), 8.07 against A31 (A*3101), 5.84 at A*3301 and 5.84 against A*6801.

On to NTNAGTDPR [Peptide 88.0372], for which the pIC50 was 5.95 on HLA-A3.2 (A*0301), 5.15 against A31 (A*3101), 6.38 on A*3301 and 7.30 against A*6801.

For the sequence LTYDSEWQR [Peptide 1589.04], the negative-log IC50 (pIC50) at HLA-A3.2 (A*0301) was 6.05; at A*6801, 7.85.

Consider TSNECTNNK [Peptide 1589.31], for which the values for the pIC50 against HLA-A3.2 (A*0301), against A31 (A*3101) and at A*3301 were 5.32, 5.05 and less than 4.70, respectively.

As for RFHNIAGHYR [Peptide 78.0097], the pIC50 was 5.61 against HLA-A3.2 (A*0301), 7.96 against A31 (A*3101), 7.00 on A*3301 and 6.82 at A*6801.

AILGHIVSPR [Peptide 9017.0225]: the pIC50 against HLA-A3.2 (A*0301) is 7.85; against A31 (A*3101) it was 8.34; against A*3301, 7.13; against A*6801, 7.04.

On to EFTAFLVAFK [Peptide 88.0193], for which the pIC50 against HLA-A3.2 (A*0301) is 5.13; at A*3301 it was 6.90; at A*6801 it was 6.01.

In the case of LTALIKPKKR [Peptide 9017.0231], the pIC50 was 5.19 against HLA-A3.2 (A*0301), 5.89 at A31 (A*3101), 5.06 against A*3301 and 7.41 against A*6801.

Take WLSEPQKCFK [Peptide 88.0236]: the values for the negative-log IC50 (pIC50) against HLA-A3.2 (A*0301), against A31 (A*3101) and against A*3301 were 5.77, 5.63 and 6.21, respectively.

On to LTYISTSQR [Peptide 1589.19], for which the negative logarithm of the IC50 (pIC50) against HLA-A3.2 (A*0301) is 7.85; against A31 (A*3101) it was 7.41; on A*3301 it was 7.10; at A*6801 it was 9.12.

On to SFTDLVRNFK [Peptide 88.0143], for which the pIC50 was 5.80 against HLA-A3.2 (A*0301), 7.33 on A31 (A*3101), 7.25 against A*3301 and 7.66 against A*6801.

Regarding SLKCLRYRLK [Peptide 88.0217], the pIC50 was 7.13 at HLA-A3.2 (A*0301), 5.57 on A31 (A*3101), 4.73 at A*3301 and 4.90 on A*6801.

In the case of GQWIQSRCEK [Peptide 88.0166], the negative logarithm of the IC50 (pIC50) is 6.49 at HLA-A3.2 (A*0301), 5.31 against A*3301 and less than 4.70 against A*6801.

In the case of IMCLRFLSK [Peptide 1571.12], the negative logarithm of the IC50 (pIC50) is 7.96 on HLA-A3.2 (A*0301), 5.64 against A31 (A*3101), 5.58 on A*3301 and 4.89 at A*6801.

For NTKANILYK [Peptide 88.0358], the pIC50 at HLA-A3.2 (A*0301) was 5.67; against A*3301, 6.16; against A*6801, 7.00.

For the sequence KTLLQQYCLY [Peptide 88.0130], the negative-log IC50 (pIC50) against HLA-A3.2 (A*0301) is 6.69; at A31 (A*3101), 5.53; on A*3301, 4.84; against A*6801, 5.15.

SQRLNACQNK [Peptide 1589.34]: the pIC50 is 5.57 at HLA-A3.2 (A*0301), 5.22 against A31 (A*3101), less than 4.70 at A*3301 and less than 4.70 against A*6801.

Consider DSNAQAFLK [Peptide 88.0379], for which the negative-log IC50 (pIC50) is less than 4.70 against HLA-A3.2 (A*0301), less than 4.70 on A31 (A*3101), 7.70 at A*3301 and 7.41 against A*6801.

On to GQGVSIEWRK [Peptide 9017.0219], for which the negative logarithm of the IC50 (pIC50) is 4.82 against HLA-A3.2 (A*0301), 5.10 at A31 (A*3101), less than 4.70 on A*3301 and 5.65 at A*6801.

For HLFGYSFYK [Peptide 76.0190], the pIC50 at HLA-A3.2 (A*0301) is 8.27; at A31 (A*3101), 7.57; against A*3301 it was 7.48.

In the case of SVCMGGMNR [Peptide 1556.60], the pIC50 against HLA-A3.2 (A*0301) was 6.80; against A31 (A*3101), 7.04; at A*3301, 7.11.

The record behind these values is US9340577B2, “HLA binding motifs and peptides and their uses” (priority 1992, dated 2016).
